Results as given in PubChem BioAssay (NCI).
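Five concentrations, 48 hours, 96-well plates. At the TGI there is no net growth.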

Assays:
Experiment in all cases: growth of human tumour cells (NCI), 48 h
786-0 renal = test system: 786-0 renal
A498 renal = test system: A498 renal
A549 NSCLC = test system: A549 NSCLC
ACHN renal = test system: ACHN renal
BT-549 breast = test system: BT-549 breast
CAKI-1 renal = test system: CAKI-1 renal
CCRF-CEM leukemia = test system: CCRF-CEM leukemia
COLO 205 colon = test system: COLO 205 colon
DU-145 prostate = test system: DU-145 prostate
EKVX NSCLC = test system: EKVX NSCLC
HCC-2998 colon = test system: HCC-2998 colon
HCT-116 colon = test system: HCT-116 colon
HCT-15 colon = test system: HCT-15 colon
HL-60(TB) leukemia = test system: HL-60(TB) leukemia
HOP-62 NSCLC = test system: HOP-62 NSCLC
HOP-92 NSCLC = test system: HOP-92 NSCLC
HS 578T breast = test system: HS 578T breast
HT29 colon = test system: HT29 colon
IGROV1 ovarian = test system: IGROV1 ovarian
K-562 leukemia = test system: K-562 leukemia
KM12 colon = test system: KM12 colon
LOX IMVI melanoma = test system: LOX IMVI melanoma
M14 melanoma = test system: M14 melanoma
MALME-3M melanoma = test system: MALME-3M melanoma
MCF7 breast = test system: MCF7 breast
MDA-MB-231 breast = test system: MDA-MB-231 breast
MDA-MB-435 = test system: MDA-MB-435
MDA-N = test system: MDA-N
MOLT-4 leukemia = test system: MOLT-4 leukemia
NCI-H226 lung = test system: NCI-H226 lung
NCI-H23 lung = test system: NCI-H23 lung
NCI-H460 lung = test system: NCI-H460 lung
NCI-H522 lung = test system: NCI-H522 lung
NCI/ADR-RES ovarian = test system: NCI/ADR-RES ovarian
OVCAR-3 ovarian = test system: OVCAR-3 ovarian
OVCAR-4 ovarian = test system: OVCAR-4 ovarian
OVCAR-5 ovarian = test system: OVCAR-5 ovarian
OVCAR-8 ovarian = test system: OVCAR-8 ovarian
PC-3 prostate = test system: PC-3 prostate
RPMI-8226 leukemia = test system: RPMI-8226 leukemia
RXF 393 renal = test system: RXF 393 renal
SF-268 CNS = test system: SF-268 CNS
SF-295 CNS = test system: SF-295 CNS
SF-539 CNS = test system: SF-539 CNS
SK-MEL-2 melanoma = test system: SK-MEL-2 melanoma
SK-MEL-28 melanoma = test system: SK-MEL-28 melanoma
SK-MEL-5 melanoma = test system: SK-MEL-5 melanoma
SK-OV-3 ovarian = test system: SK-OV-3 ovarian
SN12C renal = test system: SN12C renal
SNB-19 CNS = test system: SNB-19 CNS
SNB-75 CNS = test system: SNB-75 CNS
SR leukemia = test system: SR leukemia
SW-620 colon = test system: SW-620 colon
T-47D breast = test system: T-47D breast
TK-10 renal = test system: TK-10 renal
U251 CNS = test system: U251 CNS
UACC-257 melanoma = test system: UACC-257 melanoma
UACC-62 melanoma = test system: UACC-62 melanoma
UO-31 renal = test system: UO-31 renal

For `Cc1ccccc1NC(=S)N/N=C(/c1ccccc1)c1ccccn1`, which TGI (786-0 renal) is on record?
The TGI was 10.8 µM.

What about the TGI (A498 renal) of the same molecule?
The TGI was 10.2 µM.

And the TGI (A549 NSCLC)?
The TGI was 11.8 µM.

What about the TGI (ACHN renal) of the same molecule?
Its TGI is 5.4 µM.

What about the TGI (BT-549 breast) of the same molecule?
Its TGI is 18.5 µM.

And the TGI (CAKI-1 renal)?
The TGI was 10.5 µM.

What about the TGI (CCRF-CEM leukemia) of the same molecule?
Its TGI is 11.6 µM.

And the TGI (COLO 205 colon)?
Its TGI is 19.1 µM.

What about the TGI (DU-145 prostate) of the same molecule?
The TGI was 18.3 µM.

And the TGI (EKVX NSCLC)?
Its TGI is 3.43 µM.

What about the TGI (HCC-2998 colon) of the same molecule?
Its TGI is 14.3 µM.

What about the TGI (HCT-116 colon) of the same molecule?
The TGI was 17.2 µM.

What about the TGI (HCT-15 colon) of the same molecule?
The TGI was 15.8 µM.

And the TGI (HL-60(TB) leukemia)?
The TGI was 1.24 µM.

And the TGI (HOP-62 NSCLC)?
Its TGI is 11.5 µM.

And the TGI (HOP-92 NSCLC)?
The TGI was 13.2 µM.

And the TGI (HS 578T breast)?
The TGI was 31.2 µM.

What about the TGI (HT29 colon) of the same molecule?
Its TGI is 15.8 µM.

And the TGI (IGROV1 ovarian)?
Its TGI is 15.3 µM.

What about the TGI (K-562 leukemia) of the same molecule?
The TGI was 4.17 µM.

And the TGI (KM12 colon)?
Its TGI is 14 µM.

And the TGI (LOX IMVI melanoma)?
Its TGI is 20.4 µM.

What about the TGI (M14 melanoma) of the same molecule?
The TGI was 1.91 µM.

What about the TGI (MALME-3M melanoma) of the same molecule?
The TGI was 11.8 µM.

And the TGI (MCF7 breast)?
The TGI was 15.3 µM.

What about the TGI (MDA-MB-231 breast) of the same molecule?
Its TGI is 12.7 µM.

And the TGI (MDA-MB-435)?
Its TGI is 14.2 µM.

And the TGI (MDA-N)?
The TGI was 14.1 µM.

What about the TGI (MOLT-4 leukemia) of the same molecule?
Its TGI is 3.98 µM.

And the TGI (NCI-H226 lung)?
The TGI was 1.66 µM.

And the TGI (NCI-H23 lung)?
Its TGI is 21.5 µM.

What about the TGI (NCI-H460 lung) of the same molecule?
Its TGI is 9.05 µM.

What about the TGI (NCI-H522 lung) of the same molecule?
Its TGI is 3.4 µM.

What about the TGI (NCI/ADR-RES ovarian) of the same molecule?
The TGI was 15.2 µM.

What about the TGI (OVCAR-3 ovarian) of the same molecule?
The TGI was 10.5 µM.

What about the TGI (OVCAR-4 ovarian) of the same molecule?
The TGI was 20.8 µM.

And the TGI (OVCAR-5 ovarian)?
Its TGI is 10.6 µM.

What about the TGI (OVCAR-8 ovarian) of the same molecule?
The TGI was 11.8 µM.

And the TGI (PC-3 prostate)?
The TGI was 13.6 µM.

What about the TGI (RPMI-8226 leukemia) of the same molecule?
Its TGI is 10.2 µM.

What about the TGI (RXF 393 renal) of the same molecule?
The TGI was 12.3 µM.

What about the TGI (SF-268 CNS) of the same molecule?
The TGI was 14.8 µM.

And the TGI (SF-295 CNS)?
Its TGI is 8.7 µM.

And the TGI (SF-539 CNS)?
The TGI was 7.76 µM.

And the TGI (SK-MEL-2 melanoma)?
Its TGI is 6.9 µM.

And the TGI (SK-MEL-28 melanoma)?
Its TGI is 16.8 µM.

And the TGI (SK-MEL-5 melanoma)?
The TGI was 3.93 µM.

What about the TGI (SK-OV-3 ovarian) of the same molecule?
The TGI was 14.2 µM.

What about the TGI (SN12C renal) of the same molecule?
Its TGI is 10 µM.

And the TGI (SNB-19 CNS)?
Its TGI is 16.5 µM.

What about the TGI (SNB-75 CNS) of the same molecule?
The TGI was 17.4 µM.

And the TGI (SR leukemia)?
Its TGI is greater than 21.2 µM.

And the TGI (SW-620 colon)?
Its TGI is 15.4 µM.

And the TGI (T-47D breast)?
Its TGI is 12.4 µM.

And the TGI (TK-10 renal)?
Its TGI is 5.24 µM.

What about the TGI (U251 CNS) of the same molecule?
Its TGI is 12.1 µM.

And the TGI (UACC-257 melanoma)?
The TGI was 0.357 µM.

What about the TGI (UACC-62 melanoma) of the same molecule?
The TGI was 17.1 µM.

What about the TGI (UO-31 renal) of the same molecule?
Its TGI is 4.25 µM.

How did the TGI (786-0 renal) turn out when `O=C([C@H](O)[C@@H](O)c1ccc(Br)cc1)C12CC3CC(CC(C3)C1)C2` was run?
Its TGI is 45.9 µM.

And the TGI (A498 renal)?
Its TGI is 32.5 µM.

And the TGI (A549 NSCLC)?
Its TGI is 97 µM.

And the TGI (ACHN renal)?
The TGI was greater than 54.1 µM.

And the TGI (BT-549 breast)?
Its TGI is 24 µM.

What about the TGI (CAKI-1 renal) of the same molecule?
Its TGI is 59.2 µM.

And the TGI (CCRF-CEM leukemia)?
The TGI was greater than 30.8 µM.

And the TGI (COLO 205 colon)?
The TGI was greater than 40.2 µM.

What about the TGI (DU-145 prostate) of the same molecule?
The TGI was 51.8 µM.

What about the TGI (EKVX NSCLC) of the same molecule?
The TGI was greater than 76.9 µM.

And the TGI (HCC-2998 colon)?
The TGI was greater than 38.9 µM.

And the TGI (HCT-116 colon)?
The TGI was greater than 51.9 µM.

And the TGI (HCT-15 colon)?
The TGI was greater than 75 µM.

And the TGI (HL-60(TB) leukemia)?
The TGI was greater than 26.5 µM.

What about the TGI (HOP-62 NSCLC) of the same molecule?
Its TGI is 26.6 µM.

And the TGI (HS 578T breast)?
Its TGI is greater than 85.9 µM.

And the TGI (HT29 colon)?
Its TGI is greater than 61.9 µM.

And the TGI (IGROV1 ovarian)?
Its TGI is 12.9 µM.

And the TGI (K-562 leukemia)?
Its TGI is greater than 100 µM.

What about the TGI (KM12 colon) of the same molecule?
The TGI was greater than 74.9 µM.

And the TGI (LOX IMVI melanoma)?
Its TGI is greater than 100 µM.

And the TGI (M14 melanoma)?
Its TGI is 37.5 µM.

And the TGI (MALME-3M melanoma)?
The TGI was 51.4 µM.

What about the TGI (MCF7 breast) of the same molecule?
Its TGI is greater than 39.7 µM.

And the TGI (MDA-MB-231 breast)?
Its TGI is greater than 43 µM.

What about the TGI (MDA-MB-435) of the same molecule?
The TGI was greater than 56.4 µM.

What about the TGI (MDA-N) of the same molecule?
Its TGI is greater than 100 µM.

What about the TGI (MOLT-4 leukemia) of the same molecule?
Its TGI is greater than 100 µM.

And the TGI (NCI-H226 lung)?
The TGI was greater than 85.7 µM.

And the TGI (NCI-H23 lung)?
Its TGI is greater than 37.9 µM.

What about the TGI (NCI-H460 lung) of the same molecule?
Its TGI is 16.1 µM.

What about the TGI (NCI-H522 lung) of the same molecule?
Its TGI is greater than 57.7 µM.

What about the TGI (NCI/ADR-RES ovarian) of the same molecule?
Its TGI is greater than 57.1 µM.

And the TGI (OVCAR-3 ovarian)?
Its TGI is 32.4 µM.

What about the TGI (OVCAR-4 ovarian) of the same molecule?
The TGI was greater than 100 µM.

What about the TGI (OVCAR-5 ovarian) of the same molecule?
The TGI was greater than 72.9 µM.

And the TGI (OVCAR-8 ovarian)?
Its TGI is greater than 100 µM.

What about the TGI (PC-3 prostate) of the same molecule?
The TGI was 24.5 µM.

What about the TGI (RPMI-8226 leukemia) of the same molecule?
The TGI was greater than 100 µM.

And the TGI (RXF 393 renal)?
Its TGI is greater than 100 µM.

What about the TGI (SF-268 CNS) of the same molecule?
Its TGI is greater than 70.6 µM.

And the TGI (SF-295 CNS)?
The TGI was 47.1 µM.

What about the TGI (SF-539 CNS) of the same molecule?
Its TGI is greater than 28.7 µM.

And the TGI (SK-MEL-2 melanoma)?
The TGI was greater than 31.6 µM.

And the TGI (SK-MEL-28 melanoma)?
Its TGI is greater than 68.6 µM.

What about the TGI (SK-MEL-5 melanoma) of the same molecule?
The TGI was greater than 56.2 µM.

And the TGI (SK-OV-3 ovarian)?
The TGI was greater than 75.2 µM.

And the TGI (SN12C renal)?
The TGI was greater than 65.8 µM.

What about the TGI (SNB-19 CNS) of the same molecule?
The TGI was greater than 90.4 µM.

And the TGI (SNB-75 CNS)?
Its TGI is 8.2 µM.

What about the TGI (SR leukemia) of the same molecule?
Its TGI is greater than 100 µM.

And the TGI (SW-620 colon)?
Its TGI is greater than 38.4 µM.

And the TGI (T-47D breast)?
Its TGI is greater than 29.3 µM.

What about the TGI (TK-10 renal) of the same molecule?
Its TGI is greater than 47.8 µM.

And the TGI (U251 CNS)?
The TGI was greater than 36.4 µM.

What about the TGI (UACC-257 melanoma) of the same molecule?
Its TGI is greater than 43.3 µM.

What about the TGI (UACC-62 melanoma) of the same molecule?
Its TGI is 25.8 µM.

What about the TGI (UO-31 renal) of the same molecule?
The TGI was greater than 55.2 µM.
